Data as given in patent US20050113566A1, “Inhibitors of C-FMS kinase” (priority 2003, published 2005).

Biological target: c-fms (Homo sapiens, UniProt P07333)
Assay: autophosphorylation, fluorescence polarization competition immunoassay for c-fms inhibition
Format: biochemical
Conditions: 10 nM c-fms, 1 mM ATP; for IC50: averages of three independent measurements; for inhibition at 2 µM: at 2 μM compound
Protocol: The assay buffer used was 100 mM 4-(2-hydroxyethyl)piperazine 1-ethanesulfonic acid (HEPES), pH 7.5, 1 mM 1,4-dithio-DL-threitol (DTT), 0.01% (v/v) Tween-20. Compounds were diluted in assay buffer containing 4% dimethylsulfoxide (DMSO) just prior to the assay. To each well, 5 μL of compound were added followed by the addition of 3 μL of a mix containing 33 nM c-fms (Johnson & Johnson PRD) and 16.7 mM MgCl2 (Sigma) in assay buffer. The kinase reaction was initiated by adding 2 μL of 5 mM ATP (Sigma) in assay buffer. The final concentrations in the assay were 10 nM c-fms, 1 mM ATP, 5 mM MgCl2, 2% DMSO. Control reactions were ran in each plate: in positive and negative control wells, assay buffer (made 4% in DMSO) was substituted for the compound; in addition, positive control wells received 1.2 μL of 50 mM ethylenediaminetetraaceticacid (EDTA).
The plates were incubated at room temperature for 45 min. At the end of the incubation, the reaction was quenched with 1.2 μL of 50 mM EDTA (EDTA was not added to the positive control wells at this point; see above). Following a 5-min incubation, each well received 10 μL of a 1:1:3 mixture of anti-phosphotyrosine antibody, 10×, PTK green tracer, 10× (vortexed), FP dilution buffer, respectively (all from PanVera, cat. # P2837). The plate was covered, incubated for 30 min at room temperature and the fluorescence polarization was read on the Analyst. The instrument settings were: 485 nm excitation filter; 530 nm emission filter; Z height: middle of well; G factor: 0.93. […] The reported IC50 values are averages of three independent measurements.

Chain of c-fms (P07333 20-972): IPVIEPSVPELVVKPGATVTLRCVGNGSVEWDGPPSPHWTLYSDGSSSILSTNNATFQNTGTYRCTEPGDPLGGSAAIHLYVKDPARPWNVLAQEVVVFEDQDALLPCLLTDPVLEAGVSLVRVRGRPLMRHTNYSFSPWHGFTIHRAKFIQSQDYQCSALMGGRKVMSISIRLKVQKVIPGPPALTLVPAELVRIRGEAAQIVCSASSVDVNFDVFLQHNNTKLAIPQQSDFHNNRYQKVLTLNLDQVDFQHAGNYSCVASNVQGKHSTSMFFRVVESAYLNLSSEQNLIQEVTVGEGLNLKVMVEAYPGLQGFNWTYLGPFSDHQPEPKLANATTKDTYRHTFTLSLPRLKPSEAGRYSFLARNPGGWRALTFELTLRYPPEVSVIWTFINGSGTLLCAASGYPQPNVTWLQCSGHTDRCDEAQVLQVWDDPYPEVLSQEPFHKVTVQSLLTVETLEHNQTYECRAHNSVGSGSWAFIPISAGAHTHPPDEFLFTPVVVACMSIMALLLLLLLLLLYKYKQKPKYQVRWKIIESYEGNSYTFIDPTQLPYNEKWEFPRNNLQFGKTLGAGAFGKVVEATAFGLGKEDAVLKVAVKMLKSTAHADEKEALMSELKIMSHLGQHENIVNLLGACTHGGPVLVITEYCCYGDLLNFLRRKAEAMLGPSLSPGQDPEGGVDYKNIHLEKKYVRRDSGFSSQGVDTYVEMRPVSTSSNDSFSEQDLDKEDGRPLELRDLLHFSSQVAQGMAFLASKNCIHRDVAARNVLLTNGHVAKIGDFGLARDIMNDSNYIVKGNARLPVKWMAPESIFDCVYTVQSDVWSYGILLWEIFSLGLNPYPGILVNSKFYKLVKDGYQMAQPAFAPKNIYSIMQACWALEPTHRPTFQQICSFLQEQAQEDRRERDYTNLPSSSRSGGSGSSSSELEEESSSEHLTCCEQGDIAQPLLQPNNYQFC

Row | IC50 | inhibition at 2 µM | Structure (SMILES)
1 | < 5000 nM | 54% | N#Cc1ccc(C(=O)Nc2ccccc2-c2ccccc2)o1
2 | < 1000 nM | 85% | N#Cc1ccc(C(=O)Nc2ccccc2C2=CCCCC2)o1
3 | – | 13% | N#Cc1ccc(C(=O)Nc2ccccc2-c2ccco2)o1
4 | – | 25% | N#Cc1ccc(C(=O)Nc2ccccc2-c2cccs2)o1
5 | – | 29% | N#Cc1ccc(C(=O)Nc2ccccc2C2CCCCC2)o1
